Laboratory results as given in the OligoGym collection.
HELM strings list units from the 5' end as sugar, base in round brackets, then linkage (d deoxyribose, r ribose, m 2'-O-methyl, p phosphodiester). Strings are as the collection lists them, not checked against the first reports. ss, as = sense and antisense strand; [fl2r] = 2'-fluoro

Conditions: siRNA
Note: test system not given here.

Substance	target mRNA knockdown [%]
RNA1{r(A)p.r(C)p.r(C)p.r(G)p.r(A)p.r(C)p.r(G)p.r(A)p.r(U)p.r(U)p.r(C)p.r(U)p.r(U)p.r(C)p.m(U)p.r(A)p.r(C)p.r(U)p.r(C)p.r(T)p.r(T)}|RNA2{r(G)p.r(A)p.r(G)p.m(U)p.r(A)p.r(G)p.r(A)p.r(A)p.r(G)p.m(A)p.m(A)p.r(U)p.r(C)p.r(G)p.r(U)p.r(C)p.r(G)p.r(G)p.r(U)p.r(T)p.r(T)}$$$RNA1{StrandType:ss}|RNA2{StrandType:as}$	67
RNA1{r(A)p.r(C)p.r(C)p.r(G)p.r(A)p.r(C)p.r(G)p.r(A)p.r(U)p.r(U)p.r(C)p.r(U)p.r(U)p.r(C)p.r(U)p.r(A)p.r(C)p.r(U)p.r(C)p.r(T)p.r(T)}|RNA2{r(G)p.r(A)p.r(G)p.m(U)p.r(A)p.r(G)p.r(A)p.r(A)p.r(G)p.r(A)p.r(A)p.r(U)p.r(C)p.r(G)p.r(U)p.r(C)p.r(G)p.r(G)p.r(U)p.r(T)p.r(T)}$$$RNA1{StrandType:ss}|RNA2{StrandType:as}$	68
RNA1{r(A)p.r(C)p.r(C)p.r(U)p.[fl2r](U)p.r(A)p.r(A)p.r(G)p.r(G)p.r(A)p.r(C)p.[fl2r](C)p.[fl2r](A)p.r(C)p.r(C)p.r(G)p.r(G)p.r(A)p.r(U)p.r(T)p.r(T)}|RNA2{r(A)p.r(U)p.r(C)p.r(C)p.r(G)p.r(G)p.[fl2r](U)p.[fl2r](G)p.r(G)p.r(U)p.r(C)p.r(C)p.r(U)p.[fl2r](U)p.[fl2r](A)p.r(A)p.r(G)p.r(G)p.r(U)p.r(T)p.r(T)}$$$RNA1{StrandType:ss}|RNA2{StrandType:as}$	70
RNA1{r(A)p.r(C)p.r(C)p.r(U)p.[fl2r](U)p.r(A)p.r(A)p.r(G)p.r(G)p.r(A)p.r(C)p.r(C)p.r(A)p.r(C)p.r(C)p.r(G)p.r(G)p.r(A)p.r(U)p.r(T)p.r(T)}|RNA2{r(A)p.r(U)p.r(C)p.r(C)p.r(G)p.r(G)p.[fl2r](U)p.r(G)p.r(G)p.r(U)p.r(C)p.r(C)p.r(U)p.r(U)p.r(A)p.r(A)p.r(G)p.r(G)p.r(U)p.r(T)p.r(T)}$$$RNA1{StrandType:ss}|RNA2{StrandType:as}$	71
RNA1{r(A)p.r(C)p.r(C)p.r(U)p.m(U)p.r(A)p.r(A)p.r(G)p.r(G)p.r(A)p.r(C)p.m(C)p.r(A)p.r(C)p.r(C)p.r(G)p.r(G)p.r(A)p.r(U)p.r(T)p.r(T)}|RNA2{r(A)p.r(U)p.r(C)p.r(C)p.r(G)p.r(G)p.m(U)p.r(G)p.r(G)p.r(U)p.r(C)p.r(C)p.r(U)p.m(U)p.r(A)p.r(A)p.r(G)p.r(G)p.r(U)p.r(T)p.r(T)}$$$RNA1{StrandType:ss}|RNA2{StrandType:as}$	72
RNA1{r(A)p.r(C)p.r(C)p.r(U)p.m(U)p.r(A)p.r(A)p.r(G)p.r(G)p.r(A)p.r(C)p.r(C)p.r(A)p.r(C)p.r(C)p.r(G)p.r(G)p.r(A)p.r(U)p.r(T)p.r(T)}|RNA2{r(A)p.r(U)p.r(C)p.r(C)p.r(G)p.r(G)p.r(U)p.r(G)p.r(G)p.r(U)p.r(C)p.r(C)p.r(U)p.m(U)p.r(A)p.r(A)p.r(G)p.r(G)p.r(U)p.r(T)p.r(T)}$$$RNA1{StrandType:ss}|RNA2{StrandType:as}$	74
RNA1{r(A)p.r(C)p.r(C)p.r(U)p.r(U)p.r(U)p.r(C)p.m(C)p.r(A)p.r(C)p.r(U)p.r(U)p.r(C)p.m(U)p.r(A)p.r(A)p.r(G)p.r(C)p.r(C)p.r(T)p.r(T)}|RNA2{r(G)p.r(G)p.r(C)p.r(U)p.m(U)p.r(A)p.r(G)p.r(A)p.r(A)p.r(G)p.m(U)p.r(G)p.r(G)p.r(A)p.r(A)p.r(A)p.r(G)p.r(G)p.r(U)p.r(T)p.r(T)}$$$RNA1{StrandType:ss}|RNA2{StrandType:as}$	75
RNA1{r(A)p.r(C)p.r(C)p.r(U)p.r(U)p.r(U)p.r(C)p.r(C)p.r(A)p.r(C)p.r(U)p.r(U)p.r(C)p.r(U)p.r(A)p.r(A)p.r(G)p.r(C)p.r(C)p.r(T)p.r(T)}|RNA2{r(G)p.r(G)p.r(C)p.m(U)p.m(U)p.r(A)p.r(G)p.r(A)p.r(A)p.r(G)p.m(U)p.r(G)p.r(G)p.r(A)p.r(A)p.r(A)p.r(G)p.r(G)p.m(U)p.r(T)p.r(T)}$$$RNA1{StrandType:ss}|RNA2{StrandType:as}$	80
RNA1{r(A)p.r(C)p.r(G)p.r(G)p.r(C)p.r(U)p.r(C)p.r(G)p.r(C)p.[fl2r](U)p.r(A)p.r(C)p.r(C)p.r(C)p.r(U)p.r(C)p.r(G)p.r(A)p.r(C)p.r(T)p.r(T)}|RNA2{r(G)p.r(U)p.r(C)p.r(G)p.r(A)p.r(G)p.r(G)p.r(G)p.[fl2r](U)p.r(A)p.r(G)p.r(C)p.r(G)p.r(A)p.r(G)p.r(C)p.r(C)p.r(G)p.r(U)p.r(T)p.r(T)}$$$RNA1{StrandType:ss}|RNA2{StrandType:as}$	78
RNA1{r(A)p.r(C)p.r(G)p.r(G)p.r(C)p.r(U)p.r(C)p.r(G)p.r(C)p.r(U)p.[fl2r](A)p.r(C)p.r(C)p.r(C)p.r(U)p.r(C)p.r(G)p.r(A)p.r(C)p.r(T)p.r(T)}|RNA2{r(G)p.r(U)p.r(C)p.r(G)p.r(A)p.r(G)p.r(G)p.r(G)p.r(U)p.r(A)p.r(G)p.r(C)p.r(G)p.r(A)p.r(G)p.r(C)p.r(C)p.r(G)p.r(U)p.r(T)p.r(T)}$$$RNA1{StrandType:ss}|RNA2{StrandType:as}$	83
RNA1{r(A)p.r(C)p.r(G)p.r(U)p.m(C)p.r(A)p.r(C)p.r(C)p.r(G)p.r(A)p.r(G)p.r(G)p.r(A)p.r(G)p.r(A)p.r(A)p.r(G)p.m(U)p.m(A)p.r(T)p.r(T)}|RNA2{m(U)p.m(A)p.r(C)p.r(U)p.r(U)p.r(C)p.r(U)p.r(C)p.r(C)p.r(U)p.r(C)p.r(G)p.r(G)p.m(U)p.r(G)p.r(A)p.r(C)p.r(G)p.r(U)p.r(T)p.r(T)}$$$RNA1{StrandType:ss}|RNA2{StrandType:as}$	74
RNA1{r(A)p.r(C)p.r(G)p.r(U)p.m(C)p.r(A)p.r(C)p.r(C)p.r(G)p.r(A)p.r(G)p.r(G)p.r(A)p.r(G)p.r(A)p.r(A)p.r(G)p.m(U)p.r(A)p.r(T)p.r(T)}|RNA2{r(U)p.r(A)p.r(C)p.r(U)p.r(U)p.r(C)p.r(U)p.r(C)p.r(C)p.r(U)p.r(C)p.r(G)p.r(G)p.m(U)p.r(G)p.r(A)p.r(C)p.r(G)p.r(U)p.r(T)p.r(T)}$$$RNA1{StrandType:ss}|RNA2{StrandType:as}$	48
RNA1{r(A)p.r(C)p.r(G)p.r(U)p.m(C)p.r(A)p.r(C)p.r(C)p.r(G)p.r(A)p.r(G)p.r(G)p.r(A)p.r(G)p.r(A)p.r(A)p.r(G)p.r(U)p.r(A)p.r(T)p.r(T)}|RNA2{m(U)p.r(A)p.r(C)p.r(U)p.r(U)p.r(C)p.r(U)p.r(C)p.r(C)p.r(U)p.r(C)p.r(G)p.r(G)p.m(U)p.r(G)p.r(A)p.r(C)p.r(G)p.r(U)p.r(T)p.r(T)}$$$RNA1{StrandType:ss}|RNA2{StrandType:as}$	80
RNA1{r(A)p.r(C)p.r(G)p.r(U)p.r(C)p.r(A)p.r(C)p.r(C)p.r(G)p.r(A)p.r(G)p.r(G)p.r(A)p.r(G)p.r(A)p.r(A)p.r(G)p.m(U)p.r(A)p.r(T)p.r(T)}|RNA2{r(U)p.r(A)p.r(C)p.r(U)p.r(U)p.r(C)p.r(U)p.r(C)p.r(C)p.r(U)p.r(C)p.r(G)p.r(G)p.r(U)p.r(G)p.r(A)p.r(C)p.r(G)p.r(U)p.r(T)p.r(T)}$$$RNA1{StrandType:ss}|RNA2{StrandType:as}$	69
RNA1{r(A)p.r(G)p.[fl2r](U)p.r(A)p.r(A)p.[fl2r](U)p.[fl2r](C)p.[fl2r](C)p.r(G)p.r(G)p.r(A)p.[fl2r](C)p.[fl2r](U)p.[fl2r](C)p.r(A)p.r(A)p.[fl2r](C)p.[fl2r](U)p.[fl2r](C)p.r(T)p.r(T)}|RNA2{r(G)p.r(A)p.r(G)p.r(U)p.r(U)p.r(G)p.r(A)p.r(G)p.r(U)p.r(C)p.r(C)p.r(G)p.r(G)p.r(A)p.r(U)p.r(U)p.r(A)p.r(C)p.r(U)p.r(T)p.r(T)}$$$RNA1{StrandType:ss}|RNA2{StrandType:as}$	59
RNA1{r(A)p.r(G)p.[fl2r](U)p.r(A)p.r(A)p.r(U)p.r(C)p.r(C)p.r(G)p.r(G)p.r(A)p.r(C)p.r(U)p.[fl2r](C)p.r(A)p.r(A)p.r(C)p.r(U)p.r(C)p.r(T)p.r(T)}|RNA2{r(G)p.r(A)p.r(G)p.r(U)p.[fl2r](U)p.r(G)p.r(A)p.r(G)p.r(U)p.r(C)p.r(C)p.r(G)p.r(G)p.r(A)p.r(U)p.[fl2r](U)p.r(A)p.r(C)p.r(U)p.r(T)p.r(T)}$$$RNA1{StrandType:ss}|RNA2{StrandType:as}$	68
RNA1{r(A)p.r(G)p.[fl2r](U)p.r(A)p.r(A)p.r(U)p.r(C)p.r(C)p.r(G)p.r(G)p.r(A)p.r(C)p.r(U)p.r(C)p.r(A)p.r(A)p.r(C)p.r(U)p.r(C)p.r(T)p.r(T)}|RNA2{r(G)p.r(A)p.r(G)p.r(U)p.r(U)p.r(G)p.r(A)p.r(G)p.r(U)p.r(C)p.r(C)p.r(G)p.r(G)p.r(A)p.r(U)p.[fl2r](U)p.r(A)p.r(C)p.r(U)p.r(T)p.r(T)}$$$RNA1{StrandType:ss}|RNA2{StrandType:as}$	69
RNA1{r(A)p.r(G)p.m(A)p.r(G)p.r(A)p.r(G)p.r(G)p.m(U)p.r(G)p.r(G)p.r(A)p.r(G)p.r(G)p.m(U)p.r(A)p.r(U)p.r(C)p.r(U)p.r(C)p.r(T)p.r(T)}|RNA2{r(G)p.r(A)p.r(G)p.r(A)p.m(U)p.r(A)p.r(C)p.r(C)p.r(U)p.r(C)p.m(C)p.r(A)p.r(C)p.r(C)p.r(U)p.m(C)p.r(U)p.r(C)p.r(U)p.r(T)p.r(T)}$$$RNA1{StrandType:ss}|RNA2{StrandType:as}$	87
RNA1{r(A)p.r(G)p.r(A)p.m(U)p.r(G)p.r(U)p.r(U)p.r(C)p.r(U)p.r(C)p.r(G)p.m(U)p.r(A)p.r(A)p.r(G)p.r(G)p.r(A)p.r(C)p.r(G)p.r(T)p.r(T)}|RNA2{r(C)p.r(G)p.r(U)p.r(C)p.r(C)p.r(U)p.m(U)p.r(A)p.r(C)p.r(G)p.r(A)p.r(G)p.r(A)p.r(A)p.m(C)p.r(A)p.r(U)p.r(C)p.r(U)p.r(T)p.r(T)}$$$RNA1{StrandType:ss}|RNA2{StrandType:as}$	60
RNA1{r(A)p.r(G)p.r(A)p.r(A)p.r(A)p.m(C)p.r(G)p.m(C)p.r(A)p.r(G)p.m(U)p.r(A)p.r(A)p.m(U)p.m(C)p.m(C)p.r(G)p.r(G)p.r(A)p.r(T)p.r(T)}|RNA2{m(U)p.m(C)p.m(C)p.r(G)p.r(G)p.r(A)p.m(U)p.m(U)p.r(A)p.m(C)p.m(U)p.r(G)p.m(C)p.r(G)p.m(U)p.m(U)p.m(U)p.m(C)p.m(U)p.r(T)p.r(T)}$$$RNA1{StrandType:ss}|RNA2{StrandType:as}$	80
